ChEMBL document CHEMBL1144447, “3-[4-(methylsulfonyl)phenyl]-5-(trifluoromethyl)(2-pyridyl) phenyl ketone as a potent and orally active cyclooxygenase-2 selective inhibitor: synthesis and biological evaluation” (J Med Chem, 2005)

Tests used:
Rattus norvegicus [1] = test: In vivo antiinflammatory potency in rat air pouch model expressed as inhibition of PGE-2 production following oral dosage of 6.1 mg/kg ([…]); format: functional
[2] = target: T1, Prostaglandin G/H synthase 2 (Homo sapiens, UniProt P35354)
T1 sequence (P35354 whole entry): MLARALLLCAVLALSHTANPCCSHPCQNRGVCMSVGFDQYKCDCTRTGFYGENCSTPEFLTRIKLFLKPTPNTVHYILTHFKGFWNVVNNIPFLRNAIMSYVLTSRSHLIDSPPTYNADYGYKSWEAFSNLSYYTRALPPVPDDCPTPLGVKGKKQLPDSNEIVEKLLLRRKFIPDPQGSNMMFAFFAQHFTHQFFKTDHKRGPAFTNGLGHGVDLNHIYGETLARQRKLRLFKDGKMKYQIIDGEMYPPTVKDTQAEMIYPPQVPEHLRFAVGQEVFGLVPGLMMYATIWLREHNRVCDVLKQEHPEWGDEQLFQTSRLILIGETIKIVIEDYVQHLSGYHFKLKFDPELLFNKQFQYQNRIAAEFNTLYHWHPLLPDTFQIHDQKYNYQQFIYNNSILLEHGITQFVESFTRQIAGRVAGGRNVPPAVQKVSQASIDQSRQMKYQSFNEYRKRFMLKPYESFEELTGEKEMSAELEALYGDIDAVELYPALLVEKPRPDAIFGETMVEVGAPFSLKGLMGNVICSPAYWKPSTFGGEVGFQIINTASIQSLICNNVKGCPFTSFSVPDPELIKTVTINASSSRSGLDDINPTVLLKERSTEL
Description: In vitro inhibitory concentration against Prostaglandin G/H synthase 2 (COX-2) in human whole blood

Rattus norvegicus [3] = test: In vivo antiinflammatory potency in rat air pouch model expressed as inhibition of white blood cell infiltration following oral dosage of 6.1 mg/kg ([…]); format: functional
[4] = target: Prostaglandin G/H synthase 1 (Homo sapiens, UniProt P23219); format: tissue-based, Blood
Description: In vitro inhibitory concentration against Prostaglandin G/H synthase 1 (COX-1) in human whole blood

Rattus norvegicus [5] = organism: Rattus norvegicus; test: animal or person; settings: po, read-out: Inhibition
Description: In vivo antiinflammatory potency in rat air pouch model expressed as inhibition of PGE-2 production following oral dosage of 5.4 mg/kg (15 mmol)

Rattus norvegicus [6] = organism: Rattus norvegicus; test: animal or person; settings: po, read-out: Inhibition; remark: listed apart in the source
Description: In vivo antiinflammatory potency in rat air pouch model expressed as inhibition of white blood cell infiltration following oral dosage of 5.4 mg/kg (15 mmol)

Chain of Prostaglandin G/H synthase 1 (P23219 whole entry): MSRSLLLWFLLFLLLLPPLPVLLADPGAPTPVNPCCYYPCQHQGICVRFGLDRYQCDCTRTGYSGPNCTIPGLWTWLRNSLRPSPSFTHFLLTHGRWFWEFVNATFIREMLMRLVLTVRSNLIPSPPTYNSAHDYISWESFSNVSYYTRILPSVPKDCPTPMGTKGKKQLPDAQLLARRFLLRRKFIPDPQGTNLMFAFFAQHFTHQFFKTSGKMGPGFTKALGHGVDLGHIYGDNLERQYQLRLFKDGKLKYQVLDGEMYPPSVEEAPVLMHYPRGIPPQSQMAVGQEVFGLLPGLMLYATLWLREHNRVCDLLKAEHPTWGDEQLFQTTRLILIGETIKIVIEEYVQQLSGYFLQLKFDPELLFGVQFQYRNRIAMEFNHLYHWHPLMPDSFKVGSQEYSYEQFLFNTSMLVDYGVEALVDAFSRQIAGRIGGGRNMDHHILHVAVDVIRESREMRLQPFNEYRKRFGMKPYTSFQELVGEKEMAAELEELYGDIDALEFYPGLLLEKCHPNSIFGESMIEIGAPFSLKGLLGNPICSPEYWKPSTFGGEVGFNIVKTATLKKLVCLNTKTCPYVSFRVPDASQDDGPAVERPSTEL

Compound	inhibition in vivo at 6.1 mg/kg (Rattus norvegicus [1])	IC50 [2]	inhibition in vivo at 6.1 mg/kg (Rattus norvegicus [3])	IC50 [4]	inhibition in vivo at 5.4 mg/kg (Rattus norvegicus [5])	inhibition in vivo at 5.4 mg/kg (Rattus norvegicus [6])
CS(=O)(=O)c1ccc(-c2cc(C(F)(F)F)cnc2C(=O)c2ccccc2)cc1	58.9%	0.25 µM	46.2%	14 µM		
Cc1ccc(-c2ncc(Cl)cc2-c2ccc(S(C)(=O)=O)cc2)cn1 [ETORICOXIB]				> 200 µM	61%	45%
